Reference: US9072709B2 (The Regents of the University of California, priority 2009, dated 2015)

T1: rhBMP-2 (Homo sapiens, UniProt P12643)
T1 construct: purchased R&D Systems, Minneapolis, Minn
T1 sequence (P12643 283-396): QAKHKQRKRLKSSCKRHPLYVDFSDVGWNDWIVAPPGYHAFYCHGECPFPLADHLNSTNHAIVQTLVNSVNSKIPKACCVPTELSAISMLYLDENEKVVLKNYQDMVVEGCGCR

T2: rhOP-1 (rhBMP-7) (Homo sapiens, UniProt P18075)
T2 construct: purchased R&D Systems, Minneapolis, Minn
T2 sequence (P18075 293-431): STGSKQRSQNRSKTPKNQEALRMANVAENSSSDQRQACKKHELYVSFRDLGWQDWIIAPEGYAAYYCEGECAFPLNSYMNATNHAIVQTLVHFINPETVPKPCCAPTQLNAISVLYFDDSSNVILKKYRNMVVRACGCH

T3: rmGDF-5 (Mus musculus, UniProt P43027)
T3 construct: purchased R&D Systems, Minneapolis, Minn
T3 sequence (P43027 376-495): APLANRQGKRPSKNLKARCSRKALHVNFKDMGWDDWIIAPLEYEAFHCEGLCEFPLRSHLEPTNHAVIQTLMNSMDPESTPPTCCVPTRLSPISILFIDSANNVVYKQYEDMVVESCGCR

B1: spp24: parental protein of BBP, secreted phosphoprotein, 24 kD (protein)
chain: FPVYDYDPASLKEALSASVAKVNSQSLSPYLFRAFRSSVKRVNALDEDSLTMDLEFRIQETTCRRESEADPATCDFQRGYHVPVAVCRSTVRMSAEQVQNVWVRCHWSSSSGSSSSEEMFFGDILGSSTSRNSYLLGLTPDRSRGEPLYEPSREMRRNFPLGNRRYSNPWPRARVNPGFE

Assays:
Swiss-Weber mice = assay: Mouse hindquarter (muscle pouch) ectopic bone formation assay, BBP alone or with rhBMP-2; format: in vivo; settings: for Bone Area / Bone Mineral Content: 21 days, mean SE
Procedure: The osteogenic activity of material was tested using male Swiss-Weber mice aged 8 to 10 weeks were used (Taconic Farms, Germantown, N.Y.). […] The dried material was placed in a #5 gelatin capsule and sterilized by exposure to chloroform vapor. To conduct the assay, mice were anesthetized using 1% isoflurane delivered in oxygen at 2 l/min through a small animal anesthesia machine (VetEquip, Pleasanton, Calif.). Animals were affixed to a surgery board and the fur over the hindquarters shaved. The skin was cleaned with 70% ethanol and a midline incision made over the spine adjacent to the hindquarters. Blunt dissection with scissors was used to expose the quadriceps muscle on one side. A small pouch was made in the muscle using the point of scissors and the #5 capsule containing the test material was inserted into the pouch. The skin was then closed with three 11 mm Michel surgical clips and the animal returned to its cage for monitoring.
After 21 days the animals were killed and the hindquarter removed. Radiological examination of the specimens was accomplished using a small parts X-Ray cabinet (Faxitron, Wheeling, Ill.). For quantization of bone formation, bone area and the bone mineral content (BMC) of an area of interest encompassing the site of ectopic bone formation was determined using a PIXImus2 small animal densitometer (GE Lunar, Madison, Wis.). Specimens were then placed in buffered formalin and submitted for routine processing for histological examination.

rhBMP-2 = target: T1, rhBMP-2; assay: Surface plasmon resonance kinetic analysis (Biacore X), ligand rhBMP-2; format: binding
Procedure: (§1) The supernatant was decanted and used for analyses. Protein concentrations were determined suing UV spectroscopy at an absorbance of 280 nm. Extinction coefficients were calculated using ProtParam tool (www.expasy.ch/tools/protparam.html). Flow rates ranged from 5 to 50 μl/min, and injection volumes were 20 to 100 μl. To ensure uniformity, an effort was made to react sufficient ligand to the chip to give a baseline value of about 2500 RU (response units). The kinetic constants ka (on rate, association constant, “recognition”) and kd (off rate, dissociation constant, “stability”) as well as the equilibrium constant KD (equilibrium constant, “affinity”) were determined by a Langmuir analysis using BIAevaluation software (version 3.2) installed on the instrument by the manufacturer.

rhOP-1 (rhBMP-7) = target: T2, rhOP-1 (rhBMP-7); assay: Surface plasmon resonance kinetic analysis (Biacore X), ligand rhOP-1; format: binding; settings: ligand rhOP-1 (rhBMP-7)
Procedure: as §1

rhTGF-β = assay: Surface plasmon resonance kinetic analysis (Biacore X), ligand rhTGF-β; format: binding, human
Procedure: as §1

rmGDF-5 = target: T3, rmGDF-5; assay: Surface plasmon resonance kinetic analysis (Biacore X), ligand rmGDF-5; format: binding
Procedure: The supernatant was decanted and used for analyses. […] Extinction coefficients were calculated using ProtParam tool (www.expasy.ch/tools/protparam.html). Flow rates ranged from 5 to 50 μl/min, and injection volumes were 20 to 100 μl. To ensure uniformity, an effort was made to react sufficient ligand to the chip to give a baseline value of about 2500 RU (response units).

Lewis rats = assay: Posterolateral intertransverse process spinal fusion at L4-L5 (radiographs, manual palpation, micro-CT); format: in vivo, rat; settings: ACS with 1000 μg BBP, no rhOP-1, 8 weeks
Excerpt: A total of 120 male Lewis rats (8 weeks of age, 200-260 g, Charles River, Wilmington, Mass.) were divided into 8 groups. Groups differed only by the materials added to the ACS (5×5×13 mm) that were applied to the surgical sites. The preparation of the implants was previously described in detail. (Alanay, et al., The adjunctive effect of a binding peptide on bone morphogenetic protein enhanced bone healing in a rodent model of spinal fusion. Spine 2008; 33:1709-13). Implanted rhOP-1 was obtained from Stryker Biotech, Hopkinton, Mass. […] Animals were sacrificed 8 weeks after surgery with CO2.
Surgical Technique. Animals were anesthetized with 2-2.5% isoflurane administered in oxygen (1 L/min) and the surgical site was shaved and disinfected with alternative betadine and 70% alcohol. Animals were premedicated with 0.15 mg buprenorphine and postoperatively received tapered doses every 12 hours for 2 days. […]
Radiographic Analysis. […] Radiographs were evaluated by 3 independent observers employing the following standardized scale: 0: no fusion; 1: incomplete fusion with bone formation present; and 2: complete fusion. […]
Manual Assessment of Fusion. Eight weeks after surgery, the spines were removed and evaluated by three blinded independent observers for intersegmental motion. […] Spines were scored as either fused or not fused. […]

[1] = BBP 50 μg implanted with 5 μg of rhBMP-2, densitometry
[2] = BBP 500 μg implanted with 5 μg of rhBMP-2, densitometry

Molecule | amount of ectopic bone formed, measured by densitometry, versus identical amount of rhBMP-2 alone (Swiss-Weber mice; 500 μg of BBP implanted with 5 μg of rhBMP-2) | histological section of mouse muscle (Swiss-Weber mice; 500 μg of BBP in atelocollagen, 21 days after implantation, H & E stain) | calcification when implanted alone with carrier (radiogram) (Swiss-Weber mice; 500 μg of BBP in atelocollagen, mouse hind quarters, 21 days after implantation) | Bone Area (Swiss-Weber mice; [1]) [cm^2] | Bone Mineral Content (Swiss-Weber mice; [1]) [g] | Bone Area (Swiss-Weber mice; [2]) [cm^2] | Bone Mineral Content (Swiss-Weber mice; [2]) [g] | kd “stability” (rhBMP-2; ligand rhBMP-2) [s⁻¹] | kd “stability” (rhOP-1 (rhBMP-7)) [s⁻¹] | ka “recognition” (rhTGF-β; ligand rhTGF-β) [M⁻¹ s⁻¹] | kd “stability” (rhTGF-β; ligand rhTGF-β) [s⁻¹] | KD (kd/ka) “affinity” (rhTGF-β; ligand rhTGF-β on CM-5 chip, Langmuir analysis) [nM] | kd “stability” (rmGDF-5) [s⁻¹] | ectopic calcification in BBP only treatment groups (Lewis rats) | induction of spinal fusion by BBP by itself (Lewis rats) | ka “recognition” (rhBMP-2; ligand rhBMP-2) [M⁻¹ s⁻¹] | KD (kd/ka) “affinity” (rhBMP-2; ligand rhBMP-2 on CM-5 chip, Langmuir analysis) [nM]
CSCC[C@@H]1NC(=O)[C@H](CCCNC(=N)N)NC(=O)[C@H](C(C)C)NC(=O)[C@H]([C@@H](C)O)NC(=O)[C@H](CO)NC(=O)[C@H](CCCNC(=N)N)NC(=O)[C@@H](N)CSSC[C@@H](C(=O)O)NC(=O)[C@H](CCCNC(=N)N)NC(=O)[C@H](C(C)C)NC(=O)[C@H](Cc2c[nH]c3ccccc23)NC(=O)[C@H](C(C)C)NC(=O)[C@H](CC(N)=O)NC(=O)[C@H](CCC(N)=O)NC(=O)[C@H](C(C)C)NC(=O)[C@H](CCC(N)=O)NC(=O)[C@H](CCC(=O)O)NC(=O)[C@H](C)NC(=O)[C@H](CO)NC1=O [BBP] | consistently greater | dystrophic calcification primarily associated with intramuscular adipose tissue | induced calcification | 0.159 ± 0.0606 | 0.00388 ± 0.0017 | 0.226 ± 0.0270 | 0.00528 ± 0.00068 | 0.00169 | 0.00369 | 27700 | 0.00175 | 68 | 0.00352 | Nor was ectopic calcification observed | did not induce any degree of fusion |  | 
B1 |  |  |  |  |  |  |  | 0.0055 |  |  |  |  |  |  |  | 311000 | 17.7
